Assay results taken from patent publication US20130274210A1, “DENDRIMERS WITH A SACCHARIDE ENDING FOR ANTI-INFLAMMATORY PURPOSES” (UNIVERSITE PAUL SABATIER TOULOUSE III, priority 2010, published 2013).

Assays:
[1] = Solubility (properties of prepared molecules); assay type: physicochemical
[2] = test system: human dendritic cells stimulated with LPS; settings: stimulation by LPS, via DC-SIGN receptor; background statement; cited from earlier work

Row | Compound | solubility [1] | production of IL-10 by human dendritic cells [2] | production of pro-inflammatory cytokines by human dendritic cells [2]
1 | NNC(=O)CCOC1OC(CO)C(O)C(O)C1O (centres unmarked) | soluble in H2O, MeOH, DMF | – | –
2 | NNC(=O)CCCCCCCCOC1OC(CO)C(O)C(O)C1OC1OC(CO)C(O)C(O)C1O (centres unmarked) | soluble in H2O, MeOH, DMF | – | –
3 | NNC(=O)CCCCCCCCOC1OC(CO)C(O)C(O)C1OC1OC(CO)C(O)C(O)C1OC1OC(CO)C(O)C(O)C1O (centres unmarked) | soluble in H2O, MeOH, DMF | – | –
4 | Mannosylated lipoarabinomannan [ManLAM] | – | increase in the production of IL-10 | decrease in the production of pro-inflammatory cytokines
